Measurements reported in patent US20110144160A1, “Antagonists of Prostaglandin D2 Receptors” (Amira Pharmaceuticals, Inc., priority 2008, published 2011).

Experiments:
human DP1 receptor = biological target: T1, human DP1 receptor (Homo sapiens, UniProt Q13258); assay: DP1 binding assay ([3H]BWA868C radioligand); conditions: human platelet membranes, 2 nM [3H]BWA868C; read-out: hDP1
T1 construct: tissue Biological Specialty Corporation; host or cells: human platelets, membrane preparation
T1 sequence (Q13258 1-359): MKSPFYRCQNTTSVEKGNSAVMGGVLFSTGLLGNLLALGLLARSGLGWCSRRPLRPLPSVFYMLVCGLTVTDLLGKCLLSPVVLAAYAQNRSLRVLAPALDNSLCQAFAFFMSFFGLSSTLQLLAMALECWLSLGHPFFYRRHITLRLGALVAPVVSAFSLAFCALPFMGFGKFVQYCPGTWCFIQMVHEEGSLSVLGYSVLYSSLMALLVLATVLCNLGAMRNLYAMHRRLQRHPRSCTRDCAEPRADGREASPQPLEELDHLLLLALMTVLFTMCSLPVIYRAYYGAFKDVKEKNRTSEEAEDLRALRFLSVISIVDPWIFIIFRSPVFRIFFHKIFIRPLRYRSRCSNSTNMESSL
Method: The ability of a compound to bind to the human DP1 receptor was evaluated via a radioligand membrane binding assay using the DP1 selective synthetic ligand [^3H]BWA868C. Packed human platelets (Biological Specialty Corporation), were resuspended in 6 volumes of Hepes/HBSS buffer (10 mM Hepes, 1 mM DTT in Hanks Balanced Salt Solution (HBSS), lysed and centrifuged at 75,000×g to pellet the membranes. Membranes were resuspended in Hepes/HBSS buffer to approximately 12 mg protein/ml. Membranes (20 μg protein/well) are incubated in 96-well plates with 2 nM [^3H]BWA868C and test compound in Assay Buffer (50 mM Hepes, 10 mM MnCl2, 1 mM EDTA, plus or minus 0.2% human serum albumin, pH 7.4) for 60 minutes at room temperature. The reactions are terminated by rapid filtration through Whatman GF/C glass fibre filter plates. The filter plates were pre-soaked in 0.33% polethylenimine for 30 minutes at room temperature then washed in Wash Buffer (50 mM Hepes, 0.5 M NaCl pH 7.4) prior to harvesting. After harvesting, the filter plates are washed 3 times with 1 ml cold Wash Buffer then dried. Scintillant is then added to the plates and the radioactivity retained on the filters is determined on a Packard TopCount (Perkin Elmer). Specific binding is determined as total radioactive binding minus non-specific binding in the presence of 10 μM BW A868C. IC50s were determined using GraphPad prism analysis of drug titration curves.

human DP2 receptor = biological target: T2, human DP2 receptor (Homo sapiens, UniProt Q9Y5Y4); assay: DP2/CRTH2 binding assay ([3H]PGD2 radioligand); conditions: membranes of HEK293 cells expressing recombinant human DP2, 1 nM [3H]PGD2; read-out: hDP2
T2 construct: expressed in transfected cells
T2 sequence (Q9Y5Y4 1-395): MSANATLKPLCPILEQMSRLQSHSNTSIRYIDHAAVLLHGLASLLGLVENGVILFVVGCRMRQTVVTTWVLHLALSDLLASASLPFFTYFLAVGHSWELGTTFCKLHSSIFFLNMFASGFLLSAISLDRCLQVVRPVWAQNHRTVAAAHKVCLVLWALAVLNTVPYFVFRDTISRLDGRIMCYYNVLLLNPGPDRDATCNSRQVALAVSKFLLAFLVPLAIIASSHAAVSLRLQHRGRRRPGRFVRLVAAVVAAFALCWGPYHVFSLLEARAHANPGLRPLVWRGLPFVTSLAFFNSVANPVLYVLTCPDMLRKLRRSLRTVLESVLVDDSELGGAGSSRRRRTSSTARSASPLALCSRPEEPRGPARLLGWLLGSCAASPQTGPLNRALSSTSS
Method: The ability of a compound to bind to the human DP2 receptor is assessed via a radioligand binding assay using [^3H]PGD2. HEK293 cells stably expressing recombinant human DP2 are resuspended in 10 mM Hepes, 7.4 containing 1 mM DTT, lysed and centrifuged at 75,000×g to pellet the membranes. The membranes are resuspended in 10 mM Hepes, 7.4 containing 1 mM DTT and 10% glycerol to approximately 5 mg protein/ml. Membranes (2-10 μg protein/well) are incubated in 96-well plates with 1 nM [^3H]PGD2 and test compound in Assay Buffer (50 mM Hepes, 10 mM MnCl2, 1 mM EDTA, plus or minus 0.2% human serum albumin, pH 7.4) for 60 minutes at room temperature. The reactions are terminated by rapid filtration through Whatman GF/C glass fibre filter plates. The filter plates were pre-soaked in 0.33% polythylenimine for 30 minutes at room temperature then washed in Wash Buffer (50 mM Hepes, 0.5 M NaCl pH 7.4) prior to harvesting. After harvesting, the filter plates are washed 3 times with 1 ml cold Wash Buffer then dried. Scintillant is then added to the plates and the radioactivity retained on the filters is determined on a Packard TopCount (Perkin Elmer). Specific binding is determined as total radioactive binding minus non-specific binding in the presence of 10 μM PGD2. IC50s were determined using GraphPad prism analysis of drug titration curves.

Row | Compound | IC50 (human DP1 receptor) | IC50 (human DP2 receptor)
1 | COc1ccc(CC(=O)O)cc1Oc1ccc(NC(=O)c2ccc(Cl)cc2)cc1CSCC(F)(F)F [Compound 1, {3-[4-(4-Chloro-benzoylamino)-2-(2,2,2-trifluoro-ethylsulfanylmethyl)-phenoxy]-4-methoxy-phenyl}-acetic acid] | > 1000 nM | < 300 nM
2 | COc1ccc(CC(=O)O)cc1Oc1ccc(NC(=O)C(C)(C)C)cc1CSCC(F)(F)F [Compound 2, {3-[4-(2,2-dimethyl-propionylamino)-2-(2,2,2-trifluoro-ethylsulfanylmethyl)-phenoxy]-4-methoxy-phenyl}-acetic acid] | > 1000 nM | < 300 nM
3 | COc1ccc(CC(=O)O)cc1Oc1ccc(NC(=O)c2ccc(Cl)cc2)cc1CSc1ccccc1 [Compound 17, {3-[4-(4-Chloro-benzoylamino)-2-phenylsulfanylmethyl-phenoxy]-4-methoxy-phenyl}-acetic acid] | > 1000 nM | < 300 nM
4 | COc1ccc(CC(=O)O)cc1Oc1ccc(NC(=O)c2ccc(Cl)cc2)cc1CSCc1ccccc1 [Compound 18, {3-[2-Benzylsulfanylmethyl-4-(4-chloro-benzoylamino)-phenoxy]-4-methoxy-phenyl}-acetic acid] | < 300 nM | < 300 nM
5 | CC(C)SCc1cc(NC(=O)C(C)(C)C)ccc1Oc1cc(Cl)cc(CC(=O)O)c1 [Compound 30, {3-Chloro-5-[4-(2,2-dimethyl-propionylamino)-2-isopropylsulfanylmethyl-phenoxy]-phenyl}-acetic acid] | > 1000 nM | < 300 nM
6 | CC(C)SCc1cc(NC(=O)C(C)(C)C)ccc1Oc1cc(CC(=O)O)cc(C(F)(F)F)c1 [Compound 54, {3-[4-(2,2-Dimethyl-propionylamino)-2-isopropylsulfanylmethyl-phenoxy]-5-trifluoromethyl-phenyl}-acetic acid] | – | < 300 nM
7 | CCc1ccc(CC(=O)O)cc1Oc1ccc(NC(=O)C(C)(C)C)cc1CSCC(F)(F)F [Compound 56, {3-[4-(2,2-Dimethyl-propionylamino)-2-(2,2,2-trifluoro-ethylsulfanylmethyl)-phenoxy]-4-ethyl-phenyl}-acetic acid] | – | < 300 nM
8 | CC(C)(C)SCc1cc(NC(=O)C(C)(C)C)ccc1Oc1cc(CC(=O)O)ccc1Cl [Compound 59, {3-[2-tert-Butylsulfanylmethyl-4-(2,2-dimethyl-propionylamino)-phenoxy]-4-chloro-phenyl}-acetic acid] | < 300 nM | < 300 nM
9 | CC(C)(C)SCc1cc(NC(=O)c2ccc(Cl)cc2)ccc1Oc1cc(CC(=O)O)ccc1Cl [Compound 60, {3-[2-tert-Butylsulfanylmethyl-4-(4-chloro-benzoylamino)-phenoxy]-4-chloro-phenyl}-acetic acid] | < 300 nM | < 300 nM
10 | COc1ccc(CC(=O)O)cc1Oc1ccc(NS(=O)(=O)c2cccc3c(N(C)C)cccc23)cc1CSC(C)(C)C [Compound 72, {3-[2-tert-butylsulfanylmethyl-4-(5-dimethylamino-naphthalene-1-sulfonylamino)-phenoxy]-4-methoxy-phenyl}-acetic acid] | – | 300 to 1000 nM

Second part, the molecule after the results:

Row | IC50 (human DP1 receptor) | IC50 (human DP2 receptor) | Compound
11 | > 1000 nM | < 300 nM | COc1ccc(CC(=O)O)cc1Oc1ccc(NC(=O)C(C)(C)C)cc1CSC(C)(C)C [Compound 7, {3-[2-tert-Butylsulfanylmethyl-4-(2,2-dimethyl-propionylamino)-phenoxy]-4-methoxy-phenyl}-acetic acid]
12 | > 1000 nM | < 300 nM | COc1ccc(CC(=O)O)cc1Oc1ccc(NC(=O)c2ccc(Cl)cc2)cc1CSc1nnc(C)s1 [Compound 19, {3-[4-(4-Chloro-benzoylamino)-2-(5-methyl-[1,3,4]thiadiazol-2-ylsulfanylmethyl)-phenoxy]-4-methoxy-phenyl}-acetic acid]
13 | > 1000 nM | < 300 nM | CC(C)(C)C(=O)Nc1ccc(Oc2cc(CC(=O)O)cc(C(F)(F)F)c2)c(CSCC(F)(F)F)c1 [Compound 32, {3-[4-(2,2-Dimethyl-propionylamino)-2-(2,2,2-trifluoro-ethylsulfanylmethyl)-phenoxy]-5-trifluoromethyl-phenyl}-acetic acid]
14 | – | < 300 nM | CC(C)SCc1cc(NC(=O)C(C)(C)C)ccc1Oc1cc(CC(=O)O)ccc1Cl [Compound 52, {4-Chloro-3-[4-(2,2-dimethyl-propionylamino)-2-isopropylsulfanylmethyl-phenoxy]-phenyl}-acetic acid]
15 | – | < 300 nM | CC(C)(C)C(=O)Nc1ccc(Oc2cc(CC(=O)O)ccc2Cl)c(CSCC(F)(F)F)c1 [Compound 53, {4-Chloro-3-[4-(2,2-dimethyl-propionylamino)-2-(2,2,2-trifluoro-ethylsulfanylmethyl)-phenoxy]-phenyl}-acetic acid]
16 | – | < 300 nM | C=Cc1ccc(CC(=O)O)cc1Oc1ccc(NC(=O)C(C)(C)C)cc1CSCC(F)(F)F [Compound 55, {3-[4-(2,2-Dimethyl-propionylamino)-2-(2,2,2-trifluoro-ethylsulfanylmethyl)-phenoxy]-4-vinyl-phenyl}-acetic acid]
17 | > 1000 nM | 300 to 1000 nM | COc1ccc(CC(=O)O)cc1Oc1ccc(N2CCNC2=O)cc1CSCC(F)(F)F [Compound 57, {4-Methoxy-3-[4-(2-oxo-imidazolidin-1-yl)-2-(2,2,2-trifluoro-ethylsulfanylmethyl)-phenoxy]-phenyl}-acetic acid]
18 | < 300 nM | < 300 nM | COc1ccc(CC(=O)O)cc1Oc1ccc(NC(=O)c2ccccc2)cc1CSC(C)(C)C [Compound 58, [3-(4-benzoylamino-2-tert-butylsulfanylmethyl-phenoxy)-4-methoxy-phenyl]-acetic acid]
19 | < 300 nM | < 300 nM | CC(C)C(=O)Nc1ccc(Oc2cc(CC(=O)O)ccc2Cl)c(CSC(C)(C)C)c1 [Compound 61, [3-(2-tert-Butylsulfanylmethyl-4-isobutyrylamino-phenoxy)-4-chloro-phenyl]-acetic acid]
20 | < 300 nM | < 300 nM | COc1ccc(CC(=O)O)cc1Oc1ccc(NC(=O)c2cccc(F)c2)cc1CSC(C)(C)C [Compound 62, {3-[2-tert-Butylsulfanylmethyl-4-(3-fluoro-benzoylamino)-phenoxy]-4-methoxy-phenyl}-acetic acid]
21 | < 300 nM | < 300 nM | COc1ccc(CC(=O)O)cc1Oc1ccc(NC(=O)c2ccc(F)cc2)cc1CSC(C)(C)C [Compound 63, {3-[2-tert-Butylsulfanylmethyl-4-(4-fluoro-benzoylamino)-phenoxy]-4-methoxy-phenyl}-acetic acid]
22 | < 300 nM | < 300 nM | COc1ccc(CC(=O)O)cc1Oc1ccc(NC(=O)c2ccccc2F)cc1CSC(C)(C)C [Compound 64, {3-[2-tert-Butylsulfanylmethyl-4-(2-fluoro-benzoylamino)-phenoxy]-4-methoxy-phenyl}-acetic acid]
